Results published in PubChem BioAssay AID2060890 (Molecular Pharmacology Branch, DTP, NCI, 2025).

Test system: LG0703-F948-PDC complex spheroid viability
Assay: Anticancer human tumor LG0703-F948-PDC patient-derived lung adenocarcinoma cell line growth inhibition [RAS]
Conditions: for IC50: curve of first compound; for viability, T/C: stronger effect = lower value
Outline: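 Tumour cells grown as complex spheroids with HUVEC endothelial cells and mesenchymal stem cells, treated with RAS pathway inhibitor combinations. Each agent spans half-log steps from near clinical Cmax, or 10 microM where Cmax is unknown.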

[1] = second compound 0.000949 µM, first compound 0.00316 µM
[2] = second compound 0.000949 µM, first compound 0.01 µM
[3] = second compound 0.000949 µM, first compound 0.0316 µM
[4] = second compound 0.000949 µM, first compound 0.1 µM
[5] = second compound 0.000949 µM, first compound 0.316 µM
[6] = second compound 0.000949 µM, first compound 1 µM
[7] = second compound 0.003 µM, first compound 0.00316 µM
[8] = second compound 0.003 µM, first compound 0.01 µM
[9] = second compound 0.003 µM, first compound 0.0316 µM
[10] = second compound 0.003 µM, first compound 0.1 µM
[11] = second compound 0.003 µM, first compound 0.316 µM
[12] = second compound 0.003 µM, first compound 1 µM
[13] = second compound 0.00949 µM, first compound 0.00316 µM
[14] = second compound 0.00949 µM, first compound 0.01 µM
[15] = second compound 0.00949 µM, first compound 0.0316 µM
[16] = second compound 0.00949 µM, first compound 0.1 µM
[17] = second compound 0.00949 µM, first compound 0.316 µM
[18] = second compound 0.00949 µM, first compound 1 µM
[19] = second compound 0.03 µM, first compound 0.00316 µM
[20] = second compound 0.03 µM, first compound 0.01 µM
[21] = second compound 0.03 µM, first compound 0.0316 µM
[22] = second compound 0.03 µM, first compound 0.1 µM
[23] = second compound 0.03 µM, first compound 0.316 µM
[24] = second compound 0.03 µM, first compound 1 µM
[25] = second compound 0.0949 µM, first compound 0.00316 µM
[26] = second compound 0.0949 µM, first compound 0.01 µM
[27] = second compound 0.0949 µM, first compound 0.0316 µM
[28] = second compound 0.0949 µM, first compound 0.1 µM
[29] = second compound 0.0949 µM, first compound 0.316 µM
[30] = second compound 0.0949 µM, first compound 1 µM
[31] = second compound 0.3 µM, first compound 0.00316 µM
[32] = second compound 0.3 µM, first compound 0.01 µM
[33] = second compound 0.3 µM, first compound 0.0316 µM
[34] = second compound 0.3 µM, first compound 0.1 µM
[35] = second compound 0.3 µM, first compound 0.316 µM
[36] = second compound 0.3 µM, first compound 1 µM
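Further: spheroids exposed to agents for 7 days.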
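Wherever viability, T/C is given: 100% = DMSO vehicle wells.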

O=C(c1ccc(F)c(F)c1Nc1ccc(I)cc1F)N1CC(O)([C@@H]2CCCCN2)C1 + CCn1c(-c2cc(N3CCN(C)CC3)cnc2C(C)OC)c2c3cc(ccc31)-c1csc(n1)CC(NC(=O)C1CC1C)C(=O)N1CCCC(N1)C(=O)OCC(C)(C)C2
IC50 (second compound 0.000949 µM): 5.33 nM | IC50 (second compound 0.003 µM): < 3.16 nM | IC50 (second compound 0.00949 µM): < 3.16 nM | IC50 (second compound 0.03 µM): < 3.16 nM | IC50 (second compound 0.0949 µM): < 3.16 nM | IC50 (second compound 0.3 µM): < 3.16 nM | viability, T/C [1]: 59.2% | viability, T/C [2]: 38.7% | viability, T/C [3]: 28% | viability, T/C [4]: 19.2% | viability, T/C [5]: 18.5% | viability, T/C [6]: 14.4% | viability, T/C [7]: 37.1% | viability, T/C [8]: 22.3% | viability, T/C [9]: 19.1% | viability, T/C [10]: 10.5% | viability, T/C [11]: 11.4% | viability, T/C [12]: 8.17% | viability, T/C [13]: 17.4% | viability, T/C [14]: 15.4% | viability, T/C [15]: 8.52% | viability, T/C [16]: 6.3% | viability, T/C [17]: 8.85% | viability, T/C [18]: 8.14% | viability, T/C [19]: 10.5% | viability, T/C [20]: 8.04% | viability, T/C [21]: 4.84% | viability, T/C [22]: 3% | viability, T/C [23]: 5.82% | viability, T/C [24]: 4.58% | viability, T/C [25]: 7.33% | viability, T/C [26]: 6.13% | viability, T/C [27]: 3.55% | viability, T/C [28]: 3.1% | viability, T/C [29]: 3.05% | viability, T/C [30]: 3.07% | viability, T/C [31]: 5.13% | viability, T/C [32]: 3.55% | viability, T/C [33]: 2.8% | viability, T/C [34]: 2.47% | viability, T/C [35]: 2.61% | viability, T/C [36]: 2.35%

Nc1ccn(C2OC(CO)C(O)C2(F)F)c(=O)n1 (stereo unspecified) + CCn1c(-c2cccnc2C(C)OC)c2c3cc(ccc31)N1CCOC(CC(NC(=O)C(C(C)C)N(C)C(=O)C3(F)CCN(C(=O)C#CC(C)(C)N(C)C)CC3)C(=O)N3CCCC(N3)C(=O)OCC(C)(C)C2)C1
IC50 (second compound 0.000949 µM): 7.67 nM | IC50 (second compound 0.003 µM): 9.28 nM | IC50 (second compound 0.00949 µM): 7.52 nM | IC50 (second compound 0.03 µM): 6.69 nM | IC50 (second compound 0.0949 µM): < 3.16 nM | IC50 (second compound 0.3 µM): < 3.16 nM | viability, T/C [1]: 79.2% | viability, T/C [2]: 40.2% | viability, T/C [3]: 36.9% | viability, T/C [4]: 32% | viability, T/C [5]: 32% | viability, T/C [6]: 30% | viability, T/C [7]: 76.2% | viability, T/C [8]: 48.3% | viability, T/C [9]: 38.9% | viability, T/C [10]: 29.8% | viability, T/C [11]: 38.9% | viability, T/C [12]: 31.3% | viability, T/C [13]: 70.7% | viability, T/C [14]: 43.2% | viability, T/C [15]: 38% | viability, T/C [16]: 36.9% | viability, T/C [17]: 43.9% | viability, T/C [18]: 30.9% | viability, T/C [19]: 66% | viability, T/C [20]: 41.4% | viability, T/C [21]: 34% | viability, T/C [22]: 30% | viability, T/C [23]: 34.7% | viability, T/C [24]: 28.9% | viability, T/C [25]: 49.3% | viability, T/C [26]: 33.2% | viability, T/C [27]: 26.7% | viability, T/C [28]: 30% | viability, T/C [29]: 27.8% | viability, T/C [30]: 22.2% | viability, T/C [31]: 31.7% | viability, T/C [32]: 22.4% | viability, T/C [33]: 27.9% | viability, T/C [34]: 27.2% | viability, T/C [35]: 31.4% | viability, T/C [36]: 19.4%

CC1(O)CCCC1n1c(=O)c(C(F)F)cc2cnc(NC3CCN(S(C)(=O)=O)CC3)nc21 (stereo unspecified) + C#Cc1c(F)ccc2cc(O)cc(-c3ncc4c(N5CC6CCC(C5)N6)nc(OCC56CCCN5CC(F)C6)nc4c3F)c12
IC50 (second compound 0.0316 µM): 6150 nM | IC50 (second compound 0.1 µM): 7250 nM | IC50 (second compound 0.316 µM): 5040 nM | IC50 (second compound 1 µM): 5730 nM | IC50 (second compound 3.16 µM): 4260 nM | IC50 (second compound 10 µM): 3940 nM | viability, T/C (second compound 0.0316 µM, first compound 0.0316 µM): 109% | viability, T/C (second compound 0.0316 µM, first compound 0.1 µM): 92.2% | viability, T/C (second compound 0.0316 µM, first compound 0.316 µM): 97.8% | viability, T/C (second compound 0.0316 µM, first compound 1 µM): 87% | viability, T/C (second compound 0.0316 µM, first compound 3.16 µM): 77.1% | viability, T/C (second compound 0.0316 µM, first compound 10 µM): 31.6% | viability, T/C (second compound 0.1 µM, first compound 0.0316 µM): 131% | viability, T/C (second compound 0.1 µM, first compound 0.1 µM): 109% | viability, T/C (second compound 0.1 µM, first compound 0.316 µM): 82.4% | viability, T/C (second compound 0.1 µM, first compound 1 µM): 76.3% | viability, T/C (second compound 0.1 µM, first compound 3.16 µM): 87.7% | viability, T/C (second compound 0.1 µM, first compound 10 µM): 29.5% | viability, T/C (second compound 0.316 µM, first compound 0.0316 µM): 83.9% | viability, T/C (second compound 0.316 µM, first compound 0.1 µM): 72.4% | viability, T/C (second compound 0.316 µM, first compound 0.316 µM): 74.5% | viability, T/C (second compound 0.316 µM, first compound 1 µM): 65.9% | viability, T/C (second compound 0.316 µM, first compound 3.16 µM): 69.4% | viability, T/C (second compound 0.316 µM, first compound 10 µM): 23.9% | viability, T/C (second compound 1 µM, first compound 0.0316 µM): 78.3% | viability, T/C (second compound 1 µM, first compound 0.1 µM): 82.7% | viability, T/C (second compound 1 µM, first compound 0.316 µM): 88.3% | viability, T/C (second compound 1 µM, first compound 1 µM): 67.1% | viability, T/C (second compound 1 µM, first compound 3.16 µM): 86.7% | viability, T/C (second compound 1 µM, first compound 10 µM): 21.3% | viability, T/C (second compound 3.16 µM, first compound 0.0316 µM): 71.5% | viability, T/C (second compound 3.16 µM, first compound 0.1 µM): 62% | viability, T/C (second compound 3.16 µM, first compound 0.316 µM): 69.1% | viability, T/C (second compound 3.16 µM, first compound 1 µM): 61.6% | viability, T/C (second compound 3.16 µM, first compound 3.16 µM): 63% | viability, T/C (second compound 3.16 µM, first compound 10 µM): 13.6% | viability, T/C (second compound 10 µM, first compound 0.0316 µM): 50% | viability, T/C (second compound 10 µM, first compound 0.1 µM): 71.3% | viability, T/C (second compound 10 µM, first compound 0.316 µM): 55.2% | viability, T/C (second compound 10 µM, first compound 1 µM): 62.9% | viability, T/C (second compound 10 µM, first compound 3.16 µM): 65.1% | viability, T/C (second compound 10 µM, first compound 10 µM): 4.24%
